Measurements taken from US10947574B2, “Method for producing fermented carotenoid using carotenoid-producing bacteria obtained by using cobalt-containing culturing medium” (ENEOS CORPORATION, priority 2015, dated 2021).
Like-named read-outs stand apart in the source and are kept apart here.

Legend:
Assay type in all cases: cell-based
[1] = system: Paracoccus sp. strain A-581-1 (FERM BP-4671); assay: Example 6: cobalt concentration series, growth (OD610) and carotenoid levels (HPLC)
Experimental: (§1) In the following examples, carotenoids were quantified by high performance liquid chromatography (HPLC) as follows.
(§2) Two columns of Inertsil SIL-100A, 5 μm (ϕ4.6 mm×250 mm) (GL Sciences Inc., Japan) were connected together for use as a column. For elution, a mixed solution of n-hexane, tetrahydrofuran and methanol (40:20:1) serving as a mobile phase was passed through the column at a flow rate of 1.0 mL per minute at a constant temperature around room temperature. For measurement, samples were each dissolved in tetrahydrofuran and diluted 100-fold with the mobile phase, and 20 μL aliquots of the resulting dilutions were injected into the column. The column eluates were detected at a wavelength of 470 nm. As a standard for quantification, astaxanthin (SIGMA, Cat. No. A9335) was used. The astaxanthin concentration of the standard solution was determined using the following equation after measuring the absorbance (A) of the standard solution at 477 nm and the area percentage % (B) of the astaxanthin peak in HPLC analysis under the above conditions.
The ingredients used to prepare the test tube medium for seed culture were obtained from lots where microbial cells had been confirmed to grow well.
The ingredients used to prepare the test tube medium for production were obtained from lots where microbial cells had been confirmed not to grow well.
The resulting culture solution was then inoculated in 0.05 ml volumes into the 7 types of test tube media for production having different cobalt concentrations, and cultured under shaking at 29° C. for 4 days at 300 spm.
(§3) After being cultured for 4 days, the culture solutions were each measured for microbial cell growth by OD610 and measure for carotenoid levels by HPLC.

[2] = system: Paracoccus carotinifaciens strain E-396 (FERM BP-4283); assay: Example 4: medium lots A-E with cobalt chloride, growth (OD610) and carotenoid levels (HPLC); settings: for Astaxanthin / OD610 / Total carotenoid: cobalt chloride added 0.1 mg/L (0.42 μmol/L)
Experimental: as §1, §2
Subsequently, medium ingredients from different manufacturers and lots were combined to prepare 5 types of media, i.e., A, B, C, D and E indicated in Table 7, each having the following composition (glucose 30 g/L, filtered corn steep liquor 30 g/L, ammonium sulfate 1.5 g/L, potassium dihydrogen phosphate 1.5 g/L, disodium hydrogen phosphate dodecahydrate 3.8 g/L, calcium chloride dihydrate 5.0 g/L, magnesium sulfate heptahydrate 0.7 g/L, iron sulfate heptahydrate 1.0 g/L, silicon-based defoaming agent 0.2 g/L). These media were each dispensed in 7.2 ml volumes into cotton-plugged test tubes having an inner diameter of 18 mm to prepare 2 test tubes for each test tube medium for production, i.e., 10 test tubes in total.
The resulting culture solution was then inoculated in 0.05 ml volumes into the 5 types of test tube media for production having different cobalt concentrations (10 test tubes in total), and cultured under shaking at 28° C. for 4 days at 300 spm.
as §3

[3] = system: Paracoccus carotinifaciens strain E-396 (FERM BP-4283)
Experimental: Subsequently, a medium of the following composition (glucose 30 g/L, filtered corn steep liquor 30 g/L, ammonium sulfate 1.5 g/L, potassium dihydrogen phosphate 1.5 g/L, disodium hydrogen phosphate dodecahydrate 3.8 g/L, calcium chloride dihydrate 5.0 g/L, magnesium sulfate heptahydrate 0.7 g/L, iron sulfate heptahydrate 1.0 g/L, silicon-based defoaming agent 0.2 g/L) was dispensed in 7.2 ml volumes into cotton-plugged test tubes having an inner diameter of 18 mm to prepare 13 test tubes containing a test tube medium for production. The ingredients used to prepare the test tube medium for production were obtained from lots where microbial cells had been confirmed not to grow well.
The 12 trace metals indicated in Table 1 were separately prepared in 0.8 ml volumes to have their final concentrations indicated in Table 1 and then added to the above 12 test tubes for production, respectively. The remaining one test tube was supplemented with 0.8 ml of ion exchanged water.
The resulting culture solution was then inoculated in 0.05 ml volumes into the 13 types of test tube media for production and cultured under shaking at 28° C. for 4 days at 300 spm.

[4] = cobalt added 0.00042 μmol/L, total 0.0024 μmol/L
[5] = cobalt added 0.0042 μmol/L, total 0.0062 μmol/L
[6] = cobalt added 0.042 μmol/L, total 0.044 μmol/L
[7] = cobalt added 0.42 μmol/L, total 0.42 μmol/L
[8] = cobalt added 4.2 μmol/L, total 4.2 μmol/L
[9] = cobalt added 42 μmol/L, total 42 μmol/L
[10] = medium lot A, total cobalt 0.42 μmol/L
[11] = medium lot B, total cobalt 0.62 μmol/L
[12] = medium lot C, total cobalt 0.46 μmol/L
[13] = medium lot D, total cobalt 0.43 μmol/L
[14] = medium lot E, total cobalt 0.49 μmol/L
[15] = final concentration of 0.1 mg/L, regardless of manufacturer and lot of medium ingredient

O.O.O.O.O.O.[Cl-].[Cl-].[Co+2] [Cobalt chloride hexahydrate]
Astaxanthin [1, 4]: 0.3 mg/L | OD610 [1, 4]: 3 | Total carotenoid [1, 4]: 0.9 mg/L | Astaxanthin [1, 5]: 0.5 mg/L | OD610 [1, 5]: 5 | Total carotenoid [1, 5]: 1.7 mg/L | Astaxanthin [1, 6]: 2.0 mg/L | OD610 [1, 6]: 21 | Total carotenoid [1, 6]: 5.3 mg/L | Astaxanthin [1, 7]: 2.1 mg/L | OD610 [1, 7]: 22 | Total carotenoid [1, 7]: 5.6 mg/L | Astaxanthin [1, 8]: 1.2 mg/L | OD610 [1, 8]: 21 | Total carotenoid [1, 8]: 5.5 mg/L | Astaxanthin [1, 9]: 0.0 mg/L | OD610 [1, 9]: 2 | Total carotenoid [1, 9]: 0.2 mg/L | Astaxanthin ([2]; Average of medium lots A-E): 28 mg/L | OD610 ([2]; Average of medium lots A-E): 37 | Total carotenoid ([2]; Average of medium lots A-E): 41 mg/L | Astaxanthin [2, 10]: 29 mg/L | OD610 [2, 10]: 37 | Total carotenoid [2, 10]: 41 mg/L | Astaxanthin [2, 11]: 26 mg/L | OD610 [2, 11]: 39 | Total carotenoid [2, 11]: 40 mg/L | Astaxanthin [2, 12]: 29 mg/L | OD610 [2, 12]: 38 | Total carotenoid [2, 12]: 44 mg/L | Astaxanthin [2, 13]: 27 mg/L | OD610 [2, 13]: 36 | Total carotenoid [2, 13]: 41 mg/L | Astaxanthin [2, 14]: 28 mg/L | OD610 [2, 14]: 37 | Total carotenoid [2, 14]: 40 mg/L | bacterial growth, in words [2, 15]: high | carotenoid productivity, in words [2, 15]: high | microbial cell growth (by OD610), in words [3]: good growth | OD610 ([3]; each trace metal added singly at final concentration of Table 1, shaking at 28° C. for 4 days): 32
